Test results taken from patent publication US12077503B2, “Substituted cyclic amides and their use as herbicides” (FMC CORPORATION, priority 2015, dated 2024).

What was measured:
Format in all cases: in vivo
[1] = system: Kochia (Kochia scoparia); assay: Test A postemergence; conditions: Bassia scoparia, post-emergence, 240 h, Postemergence; for pest or weed control at 125 g/ha: 125 g ai/ha, visual rating about 10 d after treatment, read-out: Kochia plant response rating (0 to 100 scale); for pest or weed control at 500 g/ha: 500 g ai/ha, visual injury, 0 to 100 scale (0 no effect, 100 complete control), approx. 10 d, read-out: Plant response rating, Kochia
Method in brief: (§1)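 Preemergence soil spray on seeded pots or post-emergence spray on 1–2 leaf plants, in loam–sand blend. Greenhouse ~10 d. Visual rating 0–100 against untreated plants.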

[2] = system: corn (Zea mays); assay: Test A postemergence; conditions: Zea mays, post-emergence, 240 h, Postemergence; for plant injury at 125 g/ha: 125 g ai/ha, visual rating about 10 d after treatment, read-out: Corn plant response rating (0 to 100 scale); for Corn plant response rating (crop injury, 0 = no effect, 100 = complete kill) at 500 g/ha: 500 g ai/ha, visual injury, 0 to 100 scale (0 no effect, 100 complete control), approx. 10 d
Method in brief: as §1

[3] = system: ryegrass, Italian (Italian ryegrass, Lolium multiflorum); assay: Test A postemergence; conditions: Lolium multiflorum, post-emergence, 240 h, Postemergence; for pest or weed control at 125 g/ha: 125 g ai/ha, visual rating about 10 d after treatment, read-out: Ryegrass, Italian plant response rating (0 to 100 scale); for pest or weed control at 500 g/ha: 500 g ai/ha, visual injury, 0 to 100 scale (0 no effect, 100 complete control), approx. 10 d, read-out: Plant response rating, Ryegrass, Italian
Method in brief: as §1

[4] = system: ragweed (common ragweed, Ambrosia elatior); assay: Test A postemergence; conditions: Ambrosia artemisiifolia, post-emergence, 240 h, Postemergence; for pest or weed control at 125 g/ha: 125 g ai/ha, visual rating about 10 d after treatment, read-out: Ragweed plant response rating (0 to 100 scale); for pest or weed control at 500 g/ha: 500 g ai/ha, visual injury, 0 to 100 scale (0 no effect, 100 complete control), approx. 10 d, read-out: Plant response rating, Ragweed
Method in brief: as §1

[5] = system: barnyardgrass (Echinochloa crus-galli); assay: Test A postemergence; conditions: Echinochloa crus-galli, post-emergence, 240 h, Postemergence
Method in brief: as §1

[6] = system: pigweed (Amaranthus retroflexus); assay: Test A postemergence; conditions: Amaranthus retroflexus, post-emergence, 240 h, Postemergence; for pest or weed control at 125 g/ha: 125 g ai/ha, visual rating about 10 d after treatment, read-out: Pigweed plant response rating (0 to 100 scale); for pest or weed control at 500 g/ha: 500 g ai/ha, visual injury, 0 to 100 scale (0 no effect, 100 complete control), approx. 10 d, read-out: Plant response rating, Pigweed
Method in brief: as §1

[7] = system: giant foxtail (Setaria faberii); assay: Test A postemergence; conditions: Setaria faberi, post-emergence, 240 h, Postemergence; for pest or weed control at 125 g/ha: 125 g ai/ha, visual rating about 10 d after treatment, read-out: Foxtail, Giant plant response rating (0 to 100 scale); for pest or weed control at 500 g/ha: 500 g ai/ha, visual injury, 0 to 100 scale (0 no effect, 100 complete control), approx. 10 d, read-out: Plant response rating, Foxtail, Giant
Method in brief: as §1

[8] = system: Galium (catchweed bedstraw, Galium aparine); assay: Test A postemergence; conditions: Galium, post-emergence, 240 h, Postemergence; for pest or weed control at 125 g/ha: 125 g ai/ha, visual rating about 10 d after treatment, read-out: Galium plant response rating (0 to 100 scale); for pest or weed control at 500 g/ha: 500 g ai/ha, visual injury, 0 to 100 scale (0 no effect, 100 complete control), approx. 10 d, read-out: Plant response rating, Galium
Method in brief: as §1

[9] = system: Kochia (Kochia scoparia); assay: Test A preemergence; conditions: Bassia scoparia, pre-emergence, 240 h; for pest or weed control at 500 g/ha: 500 g ai/ha, preemergence; for pest or weed control at 125 g/ha: Preemergence, 125 g ai/ha
Method in brief: as §1

[10] = system: ryegrass, Italian (Italian ryegrass, Lolium multiflorum); assay: Test A preemergence; conditions: Lolium multiflorum, pre-emergence, 240 h, 0 to 100 scale (0 no effect, 100 complete control), read-out: Plant response rating, Ryegrass, Italian; for pest or weed control at 125 g/ha: Preemergence, 125 g ai/ha
Method in brief: as §1

[11] = system: ragweed (common ragweed, Ambrosia elatior); assay: Test A preemergence; conditions: Ambrosia artemisiifolia, pre-emergence, 240 h; for pest or weed control at 500 g/ha: 500 g ai/ha, preemergence; for pest or weed control at 125 g/ha: Preemergence, 125 g ai/ha
Method in brief: as §1

[12] = system: barnyardgrass (Echinochloa crus-galli); assay: Test A preemergence; conditions: Echinochloa crus-galli, pre-emergence, 240 h; for pest or weed control at 500 g/ha: 500 g ai/ha, preemergence; for pest or weed control at 125 g/ha: Preemergence, 125 g ai/ha
Method in brief: as §1

[13] = system: pigweed (Amaranthus retroflexus); assay: Test A preemergence; conditions: Amaranthus retroflexus, pre-emergence, 240 h; for pest or weed control at 500 g/ha: 500 g ai/ha, preemergence; for pest or weed control at 125 g/ha: Preemergence, 125 g ai/ha
[14] = system: giant foxtail (Setaria faberii); assay: Test A preemergence; conditions: Setaria faberi, pre-emergence, 240 h; for pest or weed control at 500 g/ha: 500 g ai/ha, preemergence; for pest or weed control at 125 g/ha: Preemergence, 125 g ai/ha
Method in brief: as §1

[15] = system: blackgrass (Alopecurus myosuroides); assay: Test A postemergence; conditions: Alopecurus myosuroides, post-emergence, 240 h, Postemergence
Method in brief: as §1

[16] = 0 to 100 scale (0 no effect, 100 complete control), read-out: Plant response rating, Kochia
[17] = 0 to 100 scale (0 no effect, 100 complete control), read-out: Plant response rating, Ragweed
[18] = 0 to 100 scale (0 no effect, 100 complete control), read-out: Plant response rating, Barnyardgrass
[19] = 0 to 100 scale (0 no effect, 100 complete control), read-out: Plant response rating, Pigweed
[20] = 0 to 100 scale (0 no effect, 100 complete control), read-out: Plant response rating, Foxtail, Giant

SMILES | pest or weed control at 125 g/ha [1] | pest or weed control at 500 g/ha [1] | plant injury at 125 g/ha [2] | Corn plant response rating (crop injury, 0 = no effect, 100 = complete kill) at 500 g/ha [2] | pest or weed control at 125 g/ha [3] | pest or weed control at 500 g/ha [3] | pest or weed control at 125 g/ha [4] | pest or weed control at 500 g/ha [4] | pest or weed control at 125 g/ha [6] | pest or weed control at 500 g/ha [6] | pest or weed control at 125 g/ha [7] | pest or weed control at 500 g/ha [7] | pest or weed control at 125 g/ha [8] | pest or weed control at 500 g/ha [8] | pest or weed control at 125 g/ha [9, 16] | pest or weed control at 125 g/ha [10] | pest or weed control at 125 g/ha [11, 17] | pest or weed control at 125 g/ha [12, 18] | pest or weed control at 125 g/ha [13, 19] | pest or weed control at 125 g/ha [14, 20] | also measured
O=C1NC[C@H](c2ccc(OC(F)F)cc2)[C@H]1C(=O)Nc1ccc(F)cc1F [Compound 1325] | 70% | 80% | 0% | 50% | 0% | 0% | 0% | 0% | 70% | 90% | 80% | 90% | 80% | 90% | 80% | 0% | 10% | 90% | 60% | 90% | pest or weed control at 125 g/ha ([5]; 125 g ai/ha, visual rating about 10 d after treatment, read-out: Barnyardgrass plant response rating (0 to 100 scale, 0 no effect, 100 complete control)): 90%; pest or weed control at 500 g/ha ([5]; 500 g ai/ha, visual injury, 0 to 100 scale (0 no effect, 100 complete control), approx. 10 d, read-out: Plant response rating, Barnyardgrass): 90%; pest or weed control at 500 g/ha ([9]; 0 to 100 scale where 0 is no effect and 100 is complete control, read-out: Kochia plant response rating): 90%; pest or weed control at 500 g/ha ([11]; 0 to 100 scale where 0 is no effect and 100 is complete control, read-out: Ragweed plant response rating): 70%; pest or weed control at 500 g/ha ([12]; 0 to 100 scale where 0 is no effect and 100 is complete control, read-out: Barnyardgrass plant response rating): 90%; pest or weed control at 500 g/ha ([13]; 0 to 100 scale where 0 is no effect and 100 is complete control, read-out: Pigweed plant response rating): 90%; pest or weed control at 500 g/ha ([14]; 0 to 100 scale where 0 is no effect and 100 is complete control, read-out: Foxtail, Giant plant response rating): 90%
CN1C[C@H](c2ccc(C(F)(F)F)nc2)[C@@H](C(=O)Nc2cccc(F)c2F)C1=O [Compound 1372] | 70% | 80% | 70% | 90% | 20% | 30% | 60% | 60% | 60% | 80% | 90% | 90% | 60% | 70% | 90% | 60% | 90% | 90% | 90% | 90% | pest or weed control at 125 g/ha ([15]; 125 g ai/ha, visual rating about 10 d after treatment, read-out: Blackgrass plant response rating (0 to 100 scale)): 50%; pest or weed control at 500 g/ha ([15]; 500 g ai/ha, visual injury, 0 to 100 scale (0 no effect, 100 complete control), approx. 10 d, read-out: Plant response rating, Blackgrass): 70%; pest or weed control at 500 g/ha [9, 16]: 90%; pest or weed control at 500 g/ha ([10]; 500 g ai/ha, preemergence): 60%; pest or weed control at 500 g/ha [11, 17]: 90%; pest or weed control at 500 g/ha [12, 18]: 100%; pest or weed control at 500 g/ha [13, 19]: 90%; pest or weed control at 500 g/ha [14, 20]: 100%
